Common to all, as to format: biochemical
The target of test [1] is human JAK1 (Homo sapiens, UniProt P23458). The test is described as follows: In vitro JAK kinase assay (HTRF, phosphorylation of a biotinylated peptide), JAK1. Particulars: 1 mM ATP. The method, boiled down: (§1)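 Baculovirus-expressed catalytic domains (JAK1 a.a. 837-1142, JAK2 a.a. 828-1132) phosphorylate 500 nM biotinylated peptide at 1 mM ATP, Tris pH 7.8, 1 h at room temperature. EDTA stop and HTRF detection with Eu-Py20/SA-APC; IC50 values derived.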

The subject of test [2] is human JAK1. The description is as above. Particulars: ratio of IC50s, 1 mM ATP. The essentials: as §1
The target of another test is human JAK2 (Homo sapiens (Human), UniProt O60674). Briefly: In vitro JAK kinase assay (HTRF, phosphorylation of a biotinylated peptide), JAK2. Details: key to JAK2 IC50 (nM): +indicates an IC50 of ≦100 nM; ++indicates an IC50 of ≦1000 nM; +++indicates an IC50 of ≦2000 nM; ++++indicates an IC50 of >2000 nM; +++++indicates that the IC50 was greater than the highest concentration tested. Particulars: 1 mM ATP. The method, boiled down:
as §1

human JAK2, sequence (O60674 828-1132): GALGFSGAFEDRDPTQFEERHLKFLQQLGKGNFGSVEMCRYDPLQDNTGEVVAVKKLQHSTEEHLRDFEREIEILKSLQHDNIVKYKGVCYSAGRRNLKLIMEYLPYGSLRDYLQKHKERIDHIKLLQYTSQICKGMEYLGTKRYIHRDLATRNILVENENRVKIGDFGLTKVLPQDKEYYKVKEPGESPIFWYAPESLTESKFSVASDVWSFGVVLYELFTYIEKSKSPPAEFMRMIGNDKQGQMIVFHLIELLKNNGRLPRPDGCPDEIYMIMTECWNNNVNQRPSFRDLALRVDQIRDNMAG

As for `C[C@@H](O)c1nc2cnc3ccsc3c2n1[C@H]1CC[C@H](CCS(C)(=O)=O)CC1` [Example 5, (1R)-1-(1-{trans-4-[2-(Methylsulfonyl)ethyl]cyclohexyl}-1H-imidazo[4,5-d]thieno[3,2-b]pyridin-2-yl)ethanol], the IC50 at human JAK1 [1] was at most 0.1 µM. In the test on human JAK1 [2], the JAK2/JAK1 is recorded as above 10. The “JAK2 IC50 (nM)” value at human JAK2 is “+++++”.

For `C[C@@H](O)c1nc2cnc3ccsc3c2n1[C@H]1CC[C@H](NCC(F)(F)F)CC1` [Example 4, (1R)-1-(1-{trans-4-[(2,2,2-Trifluoroethyl)amino]cyclohexyl}-1H-imidazo[4,5-d]thieno[3,2-b]pyridin-2-yl)ethanol], the values for the IC50 against human JAK1 [1] and at human JAK2 were at most 0.1 µM and at most 2 µM, respectively. For the same molecule, the JAK2/JAK1 in the test with human JAK1 [2] was above 10.

Regarding `C[C@@H](O)c1nc2cnc3ccsc3c2n1[C@H]1CC[C@@H](CC#N)C1.O=C(O)C(F)(F)F` [Example 49, ((4R,3S)-3-{2-[(1R)-1-Hydroxyethyl]-1H-imidazo[4,5-d]thieno[3,2-b]pyridin-1-yl}cyclopentyl)acetonitrile trifluoroacetate], the IC50 on human JAK1 [1] is at most 1 µM. Further, the JAK2/JAK1 in the test with human JAK1 [2] is above 10. Also, the “JAK2 IC50 (nM)” value on human JAK2 is listed as “+++++”.

Turning to `C[C@@H](O)c1nc2cnc3ccsc3c2n1[C@H]1CC[C@H](CC#N)CC1.Cl` [Example 10, (trans-4-{2-[(1R)-1-Hydroxyethyl]-1H-imidazo[4,5-d]thieno[3,2-b]pyridin-1-yl}cyclohexyl)acetonitrile HCl salt], the values for the concentration for half-maximal inhibition (IC50) at human JAK1 [1] and against human JAK2 were at most 0.1 µM and at most 1 µM, respectively. Further, the JAK2/JAK1 in the test with human JAK1 [2] was above 10.

In turn, `CNS(=O)(=O)C[C@H]1CC[C@H](n2c([C@@H](C)O)nc3cnc4ccsc4c32)CC1` [Example 14, 1-(trans-4-{2-[(1R)-1-hydroxyethyl]-1H-imidazo[4,5-d]thieno[3,2-b]pyridin-1-yl}cyclohexyl)-N-methylmethanesulfonamide] came in with an IC50 at human JAK1 [1] of at most 1 µM. Also, in the test on human JAK1 [2], the JAK2/JAK1 is above 5. Besides, the “JAK2 IC50 (nM)” value on human JAK2 is listed as “+++++”.

Turning to `C[C@@H](O)c1nc2cnc3ccsc3c2n1C1CCC(O)(CC#N)CC1` (single isomer, unassigned) [24 (first peak)], the IC50 is at most 0.1 µM against human JAK1 [1] and above 2 µM on human JAK2. In the test with human JAK1 [2], the JAK2/JAK1 is reported as above 10.

`CCOC(=O)N1CCC[C@H](n2c([C@@H](C)O)nc3cnc4ccsc4c32)C1` [Example 50, Ethyl (3S)-3-{2-[(1R)-1-hydroxyethyl]-1H-imidazo[4,5-d]thieno[3,2-b]pyridin-1-yl}piperidine-1-carboxylate] returned an IC50 on human JAK1 [1] of at most 1 µM. Further, the JAK2/JAK1 in the test with human JAK1 [2] is listed as above 10. The “JAK2 IC50 (nM)” value at human JAK2 was “+++++”.

At human JAK1 [1], `C[C@@H](O)c1nc2cnc3ccsc3c2n1[C@H]1CCCN(CCC#N)C1` [Example 56, 3-((3S)-3-{2-[(1R)-1-Hydroxyethyl]-1H-imidazo[4,5-d]thieno[3,2-b]pyridin-1-yl}piperidin-1-yl)propanenitrile] returned an IC50 of at most 1 µM. Also, the JAK2/JAK1 with human JAK1 [2] is above 10. Besides, on human JAK2, the “JAK2 IC50 (nM)” value is “+++++”.

Take `COC(=O)NC[C@H]1CC[C@H](n2c(CC#N)nc3cnc4ccsc4c32)CC1` [Example 86, Methyl ({trans-4-[2-(cyanomethyl)-1H-imidazo[4,5-d]thieno[3,2-b]pyridin-1-yl]cyclohexyl}methyl)carbamate]: the IC50 at human JAK1 [1] is at most 0.1 µM; against human JAK2, at most 1 µM. Moreover, the JAK2/JAK1 in the test with human JAK1 [2] was above 10.

Turning to `CC(CC(=O)N1CCC[C@H](n2c([C@@H](C)O)nc3cnc4ccsc4c32)C1)c1ccccc1` (stereo partly drawn) [Example 55, (1R)-1-{1-[(3S)-1-(3-Phenylbutanoyl)piperidin-3-yl]-1H-imidazo[4,5-d]thieno[3,2-b]pyridin-2-yl}ethanol], at human JAK1 [1], the 50% inhibitory concentration (IC50) is at most 1 µM. Moreover, the JAK2/JAK1 in the test with human JAK1 [2] is above 10. For the same molecule, at human JAK2, the “JAK2 IC50 (nM)” value is on record as “+++++”.

Regarding `C[C@@H](O)c1nc2cnc3ccsc3c2n1[C@H]1CCCN(C(=O)CCc2cn[nH]c2)C1` [Example 53, (1R)-1-(1-{(3S)-1-[3-(1H-Pyrazol-4-yl)propanoyl]piperidin-3-yl}-1H-imidazo[4,5-d]thieno[3,2-b]pyridin-2-yl)ethanol], on human JAK1 [1], the IC50 was at most 1 µM. Moreover, the JAK2/JAK1 in the test on human JAK1 [2] was above 10. Further, the “JAK2 IC50 (nM)” value at human JAK2 is reported as “+++++”.

On to `C[C@@H](O)c1nc2cnc3ccsc3c2n1[C@H]1CC[C@H](CNC(=O)N(C)C)CC1` [Example 81, N′-[(trans-4-{2-[(1R)-1-Hydroxyethyl]-1H-imidazo[4,5-d]thieno[3,2-b]pyridin-1-yl}cyclohexyl)methyl]-N,N-dimethylurea], for which the IC50 on human JAK1 [1] was at most 0.1 µM; against human JAK2, above 2 µM. Also, the JAK2/JAK1 in the test with human JAK1 [2] was above 10.

Molecule `C[C@@H](O)c1nc2cnc3ccsc3c2n1C1CCC(NCCC#N)CC1` (single isomer, unassigned) [30 (second peak)] gave an IC50 against human JAK1 [1] of at most 2 µM. Further, in the test with human JAK1 [2], the JAK2/JAK1 is above 10. For the same molecule, the “JAK2 IC50 (nM)” value at human JAK2 is “+++++”.

Regarding `N#CC[C@H]1CC[C@H](n2c(CO)nc3cnc4ccsc4c32)CO1` [Example 91, {(2R,5S)-5-[2-(Hydroxymethyl)-1H-imidazo[4,5-b]thieno[3,2-b]pyridin-1-yl]tetrahydro-2H-pyran-2-yl}acetonitrile], the IC50 is at most 0.1 µM against human JAK1 [1] and at most 1 µM at human JAK2. For the same molecule, the JAK2/JAK1 in the test on human JAK1 [2] is on record as above 10.

The molecule `C[C@@H](O)c1nc2cnc3ccsc3c2n1[C@H]1CCN(CCCCC#N)C1` [Example 66, 5-((3S)-3-{2-[(1R)-1-Hydroxyethyl]-1H-imidazo[4,5-d]thieno[3,2-b]pyridin-1-yl}pyrrolidin-1-yl)pentanenitrile] yielded an IC50 at human JAK1 [1] of at most 1 µM. Further, the JAK2/JAK1 in the test on human JAK1 [2] was above 10. Also, at human JAK2, the “JAK2 IC50 (nM)” value was “+++++”.

For the molecule `C[C@@H](O)c1nc2cnc3ccsc3c2n1[C@H]1CC[C@H](O)CC1` [Example 3, trans-4-{2-[(1R)-1-Hydroxyethyl]-1H-imidazo[4,5-d]thieno[3,2-b]pyridin-1-yl}cyclohexanol], the IC50 at human JAK1 [1] was at most 1 µM. Also, in the test with human JAK1 [2], the JAK2/JAK1 was above 10. Also, the “JAK2 IC50 (nM)” value at human JAK2 was “+++++”.

Molecule `C[C@@H](O)c1nc2cnc3ccsc3c2n1[C@H]1CC[C@H](CO)CC1` [Example 11, (1R)-1-{1-[trans-4-(Hydroxymethyl)cyclohexyl]-1H-imidazo[4,5-d]thieno[3,2-b]pyridin-2-yl}ethanol] registered an IC50 on human JAK1 [1] of at most 0.1 µM. In addition, the JAK2/JAK1 with human JAK1 [2] is recorded as above 10. Besides, at human JAK2, the “JAK2 IC50 (nM)” value is “+++++”.

At human JAK1 [1], `N#CCc1nc2cnc3ccsc3c2n1[C@H]1CC[C@@H](CC#N)OC1` [Example 74, {(2S,5S)-5-[2-(Cyanomethyl)-1H-imidazo[4,5-d]thieno[3,2-b]pyridin-1-yl]tetrahydro-2H-pyran-2-yl}acetonitrile] showed an IC50 of at most 1 µM. In the test on human JAK1 [2], the JAK2/JAK1 was above 10. Also, the “JAK2 IC50 (nM)” value at human JAK2 was “+++++”.

For the molecule `C[C@@H](O)c1nc2cnc3ccsc3c2n1C1CCN(CCCC(F)(F)F)CC1` [Example 60, (1R)-1-{1-[1-(4,4,4-Trifluorobutyl)piperidin-4-yl]-1H-imidazo[4,5-d]thieno[3,2-b]pyridin-2-yl}ethanol], at human JAK1 [1], the IC50 was at most 1 µM. In addition, the JAK2/JAK1 in the test on human JAK1 [2] is given as above 10. The “JAK2 IC50 (nM)” value at human JAK2 is “+++++”.

The values above are taken from patent US9777017B2, “Tricyclic fused thiophene derivatives as JAK inhibitors” (Incyte Corporation, priority 2012, dated 2017).
